Source: paper PMC3441526, “KCN1, a Novel Synthetic Sulfonamide Anticancer Agent: In Vitro and In Vivo Anti-Pancreatic Cancer Activities and Preclinical Pharmacology” (PLoS ONE, 2012)

Experiments:
Mia Paca-2 cells = assay: Cell cycle measurement by flow cytometry; assay type: cell-based, human; details: for cell cycle distribution, G1 / cell cycle distribution, G2/M / cell cycle distribution, S: 24 h
Procedure: To determine the effect of KCN1 on the cell cycle, cells (2–3×10^5) were exposed to the test compounds (0, 5, 12.5 or 50 µM) and incubated for 24 h prior to analysis. Cells were trypsinized, washed with PBS, and fixed in 1.5 mL of 95% ethanol at 4°C overnight, followed by incubation with RNAse and staining with propidium iodide (Sigma). The DNA content was determined by flow cytometry, [47].

[1] = tested on: Mia Paca-2 xenograft tumors; assay: Subcutaneous xenograft tumor model; assay type: in vivo, nude mice (nu/nu); details: for decrease of tumor growth: 5 days/wk for 6 weeks
Procedure: (§1) The animal procedures were performed under approval by the Institutional Animal Use and Care Committee of Texas Tech University Health Sciences Center (IACUC # 10031, PHS Assurance # A 3056-01, USDA Registration # 74-R-0050, REF # 039436). Female athymic pathogen-free nude mice (nu/nu, 4–6 weeks) were purchased from Charles River Laboratories International Inc. (Wilmington, MA). To establish Panc-1 and Mia Paca-2 human pancreatic cancer xenograft tumors, cultured Panc-1 (5×10^6) and Mia Paca-2 (1×10^7) cells were harvested from monolayer cultures, washed twice with serum-free medium, re-suspended and injected subcutaneously (total volume 0.2 mL) into the left inguinal area of the mice. All animals were monitored for activity, physical condition, body weight, and tumor growth. Tumor size was determined every other day by caliper measurement of two perpendicular diameters of the implant. Tumor volume (in mm^3) was calculated by the formula, ½ (a × b ^2) where “a” is the long diameter and “b” is the short diameter, [47].
(§2) The animals bearing human cancer xenografts were randomly divided into various treatment groups and a control group (7–10 mice/group). The untreated control group received the vehicle only. For the Panc-1 and Mia Paca-2 xenograft models, KCN1 was dissolved in a 1∶1 solution of Cremophor EL (Sigma, St. Louis, MO): ethanol (200 Proof) by heating to 80–90°C in a water bath and vortexing, then diluted with an equal volume of phosphate-buffered saline, and was administered by intraperitoneal injection at doses of 30 and 60 mg/kg/d, 5d/wk for several weeks. Treatment was initiated once tumor volume reached ∼100 mm^3. The dosage regimen was decided based upon IC50 values obtained from in-vitro studies and adjustments for body surface and weight of the treated animal.

Panc-1 xenograft tumors = assay: Subcutaneous xenograft tumor model; assay type: in vivo, nude mice (nu/nu); details: for tumor growth inhibition: 5 days/week, Day 21
Procedure: as §1, §2

[2] = Plasma stability determination; assay type: in vitro ADME, mouse
Procedure: The validated HPLC method was used to evaluate the stability of KCN1 in mouse plasma at 37°C, 4°C and −80°C. KCN1 was dissolved in methanol and diluted with plasma to achieve the two concentrations used in the study: 1 and 10 µM. At the designated time points, samples were removed and extracted using the aforementioned procedure. KCN1 concentrations were quantified and, to illustrate the in vitro stability of the compound, expressed as percentages of the initial concentration.

immortalized fibroblasts = tested on: immortalized fibroblasts; parameters: method as in PMID 22923450; details: immortalized fibroblasts ref 31; cited from earlier work

SMILES: COc1ccc(S(=O)(=O)N(Cc2ccc3c(c2)C=CC(C)(C)O3)c2ccccc2)cc1OC [KCN1, 3,4-dimethoxy-N-[(2,2-dimethyl-2H-chromen-6-yl)methyl]-N-phenylbenzenesulfonamide]
- cell cycle distribution, G1 (Mia Paca-2 cells; Mia Paca-2, 5 µM): 50.4±3.6
- cell cycle distribution, G2/M (Mia Paca-2 cells; Mia Paca-2, 5 µM): 31.6±1.9
- cell cycle distribution, S (Mia Paca-2 cells; Mia Paca-2, 5 µM): 18.0±0.9
- cell cycle distribution, G1 (Mia Paca-2 cells; Mia Paca-2, 12.5 µM): 55.2±1.2
- cell cycle distribution, G2/M (Mia Paca-2 cells; Mia Paca-2, 12.5 µM): 24.6±0.9
- cell cycle distribution, S (Mia Paca-2 cells; Mia Paca-2, 12.5 µM): 20.2±1.7
- cell cycle distribution, G1 (Mia Paca-2 cells; Mia Paca-2, 50 µM): 58.9±3.9
- cell cycle distribution, G2/M (Mia Paca-2 cells; Mia Paca-2, 50 µM): 20.3±1.1
- cell cycle distribution, S (Mia Paca-2 cells; Mia Paca-2, 50 µM): 20.8±1.5
- concentration at which G1 arrest begins (Mia Paca-2 cells; Mia Paca-2, 24 h): 5 µM
- decrease of tumor growth ([1]; 30 mg/kg i.p.): about 43%
- decrease of tumor growth ([1]; 60 mg/kg i.p.): ~57%
- body weight versus controls ([1]; 30 or 60 mg/kg i.p.): no significant differences in body weights
- tumor growth inhibition (Panc-1 xenograft tumors; 30 mg/kg i.p.): approximately 46%
- tumor growth inhibition (Panc-1 xenograft tumors; 60 mg/kg i.p.): 61%
- body weight versus controls (Panc-1 xenograft tumors; 30 or 60 mg/kg i.p.): no significant differences in body weights
- compound remaining in mouse plasma ([2]; 4°C, at least 24 hr): more than 90%
- compound remaining in mouse plasma ([2]; 37°C, 8 hr, 1 µM): more than 80%
- compound remaining in mouse plasma ([2]; 37°C, 8 hr, 10 µM): more than 80%
- compound remaining in mouse plasma ([2]; −80°C, up to 4 wks): more than 92%
- cytostatic effect (immortalized fibroblasts): little cytostatic effect
